Structures can show the parent of a compound that is named as a salt. Where two headings read alike, the source gives them in different places.
Tests used:
α3β4 nAChR = α3β4 nAChR (Rattus norvegicus (Rat), UniProt P04757+P12392); experiment: [3H]-epibatidine competition binding, α3β4
Experimental: (§1) In Vitro Binding Affinities for nAChR Subtypes. […] To determine selectivities of these compounds in binding assays among the three predominant nAChR subtypes, α3β4, α4β2 and α7, the ratios of Ki values (α3β4/α4β2 and α7/α4β2) were determined.
(§2) Cell Lines and Cell Culture. The cell lines expressing defined rat nAChR subtypes were established previously by stably transfecting HEK 293 cells with rat nAChR subunit genes. The cell line expressing human α4β2 nAChRs, YXα4β2H1, was established recently. These cell lines were maintained in minimum essential medium (MEM) supplemented with 10% fetal bovine serum, 100 units/mL penicillin G, […] and selective antibiotics at 37° C. with 5% CO2 in a humidified incubator. Fetal bovine serum was provided by Gemini Bio-Products (Woodland, Calif.). Tissue culture medium and antibiotics were obtained from Invitrogen Corporation (Carlsbad, Calif.), unless otherwise stated.
(§3) Briefly, cultured cells at >80% confluence were removed from their flasks (80 cm^2) with a disposable cell scraper and placed in 10 mL of 50 mM Tris.HCl buffer (pH 7.4, 4° C.). The cell suspension was centrifuged at 10,000×g for 5 min and the pellet was collected. The cell pellet was then homogenized in 10 mL buffer with a polytron homogenizer and centrifuged at 36,000 g for 10 min at 4° C. The membrane pellet was resuspended in fresh buffer, and aliquots of the membrane preparation were used for binding assays. […] Bound and free ligands were separated by vacuum filtration through Whatman GF/C filters treated with 0.5% polyethylenimine. The filter-retained radioactivity was measured by liquid scintillation counting. Specific binding was defined as the difference between total binding and nonspecific binding. Data from competition binding assays were analyzed using Prism 5 (GraphPad Software, San Diego, Calif.).
(§4) Pharmacological Properties. We measured the in vitro binding affinities of the ligands for defined receptor subtypes (α2β2, α2β4, α3β2, α3β4, α4β2, α4β4, α6β2, α6β4, and α7) expressed in stably transfected cell lines. […] Rat forebrain homogenates were included to allow comparison between the heterologous and native α4β2 and α7 nAChRs. See Table 1 for binding affinity values (Ki) of the ligands at the three major nAChR subtypes (α3β4. α4β2 and α7).

α4β2 nAChR = α4β2 nAChR (Rattus norvegicus (Rat), UniProt P09483+P12390); experiment: biochemical; type: binding; conditions: for Ki Ratio α3β4/α4β2: selectivity for α4β2 over α3β4; for Ki Ratio α7/α4β2: selectivity for α4β2 over α7
Experimental: as §1, §2, §3, §4

α7 nAChR = α7 nAChR (Rattus norvegicus (Rat), UniProt Q05941); type: binding
Experimental: as §1, §2, §3, §4

human α4β2 nAChRs = human α4β2 nAChRs (Homo sapiens (Human), UniProt P17787+P43681); experiment: 86Rb+ efflux assay (activation and desensitization), α4β2; type: cell-based; conditions: for EC50: agonist activity; for Emax: read-out: Emax α4β2 nAChRs; for IC50: desensitization
Experimental: (§5) In Vitro Effects on nAChR Function. […] Their agonist activities were assessed by measuring stimulated ^86Rb^+ efflux from stably transfected cells, either expressing human α4β2 nAChRs or rat α3β4 receptors.
as §2
(§6) ^86Rb^+ Efflux Assay. Functional properties of compounds at nAChRs expressed in the transfected cells were measured using ^86Rb^+ efflux assays as described previously. In brief, cells expressing human α4β2 or rat α3β4 nAChRs were plated into 24-well plates coated with poly-D-lysine. The plated cells were grown at 37° C. for 18 to 24 hour to reach 85-95% confluence. The cells were then incubated in growth medium (0.5 mL/well) containing ^86Rb^+ (2 μCi/mL) for 4 hour at 37° C. The loading mixture was then aspirated, and the cells were washed four times with 1 mL buffer (15 mM HEPES, 140 mM NaCl, 2 mM KCl, 1 mM MgSO4, 1.8 mM CaCl2, 11 mM Glucose, pH 7.4). One mL of buffer with or without compounds to be tested was then added to each well. After incubation for 2 min, the assay buffer was collected for measurements of ^86Rb^+ released from the cells. Cells were then lysed by adding 1 mL of 100 mM NaOH to each well, and the lysate was collected for determination of the amount of ^86Rb^+ that was in the cells at the end of the efflux assay. Radioactivity of assay samples and lysates was measured by liquid scintillation counting. Total loading (cpm) was calculated as the sum of the assay sample and the lysate of each well. The amount of ^86Rb^+ efflux was expressed as a percentage of ^86Rb^+ loaded. […] For obtaining EC50 and Emax values, stimulation curves were constructed in which 8 different concentrations of a ligand were included in the assay. […] EC50, Emax and IC50(10′) values were determined by nonlinear least-squares regression analyses (GraphPad, San Diego, Calif.).
(§7) The functional properties of the ligands were determined by ^86Rb^+ efflux assays in cells expressing α3β4 and α4β2 nAChR subtypes. The functional activity of each ligand was measured for its agonism, antagonism and desensitization ability. Agonist activity for each of the ligands was tested at eight different concentrations. […] The full concentration-effect curves generated potency (EC50) and efficacy (Emax) of each ligand. […] We tested each ligand for antagonist activity at eight concentrations. The potency (IC50(0′)) of each ligand as an antagonist was derived from the full concentration-effect curves.

rat α3β4 nAChRs = rat α3β4 nAChRs (Rattus norvegicus (Rat), UniProt P04757+P12392); experiment: 86Rb+ efflux assay (activation and desensitization), α3β4; type: cell-based; conditions: for Emax: read-out: Emax α3β4 nAChRs
Experimental: as §5, §2, §6, §7

ferrets = experiment: Emesis studies in ferrets; type: in vivo, ferret (Mustela putorius furo); conditions: 0.5 mg/kg s.c.
Experimental: Emetic Effects of Compound (S)-15 (YL-1-127) in Ferrets. Effects of (S)-15 in causing nausea and emesis were assessed in a ferret model. For comparison, varenicline was also tested. […] In general, all animals remained alert and active with periods of inactivity that mirrored their baseline behavior within the 1 hr observation period.
In one animal, this behavior was accompanied by oral stereotypy (licking), whereas in two animals it was interspersed by episodes of backward walking. On the average, these behaviors manifested around ˜2.20 min. […] Occasionally, when animals tried to ambulate they would immediately cease their movement after each attempt. This would be followed by a momentary increase in breathing, giving the impression that the animal was in distress.
General Procedures for Emesis Studies in Ferrets. Studies were undertaken in male ferrets (Mustela putorius furo) weighing 0.9-1.5 kg (Marshall Farms, N.Y.). They were housed in controlled conditions of room temperature (22° C.) and light (12:12 h light-dark cycle) with free access to food and water. Prior to each experiment, food was withheld overnight, whereas water was provided ad libitum.
Emetic testing consisted of placing animals individually in a polycarbonate enclosure. Following a 30 min acclimation period, each animal randomly received a subcutaneus injection of varencline or compound (S)-15 (YL-1-127) in the subscapular region. A 60 min observation and video recording followed the drug administration. […] All drugs were dissolved in sterile saline.
Video analysis of the incidence of emesis, stereotypical behaviors (such as licking, mouth-clawing, backward walking, gagging, and burying of the head in cage) and GI side effects (diarrhea) was done off-line. Stereotypical behaviors are thought to be reflective of a subjective sensation of nausea. The emetic index of a drug was calculated as the […] of animals displaying emesis (one or more times in 60 min) divided by the total number of animals tested. An emetic episode was defined as the forceful oral expulsion of liquid or solid upper gastrointestinal contents that is temporally separated from another by at least 30 s.
The Nausea Index for the stereotypical behaviors was derived from the mean±SEM number of nausea behaviors observed among all animals in a given treatment group. Significance was determined at p<0.05.

[1] = Table 3 (Example 4), read-out: Ki α4β2
[2] = ND = no significant stimulated efflux detected
[3] = agonist efficacy normalized to Emax of nicotine, ND = no significant stimulated efflux detected
[4] = 10 min pre-treatment, Table 3 (Example 4), read-out: IC50(10′) α4β2
[5] = 10 min pre-incubation before 100 μM nicotine, Table 2, read-out: IC50(10′) α4β2 nAChRs
[6] = read-out: IC50(10′) α3β4 nAChRs
[7] = Table 1, mean of 3 to 5 measurements
[8] = Table 1, mean of 3 to 5 measurements, read-out: Ki α4β2

SMILES	Ki (α3β4 nAChR; Table 3 (Example 4))	Ki (α4β2 nAChR; [1])	Ki Ratio α3β4/α4β2 (α4β2 nAChR)	Ki Ratio α7/α4β2 (α4β2 nAChR)	Ki (α7 nAChR; Table 3 (Example 4))	EC50 (human α4β2 nAChRs; [2])	Emax (human α4β2 nAChRs; [3])	IC50 (human α4β2 nAChRs; [4])	IC50 (human α4β2 nAChRs; [5])	IC50 (rat α3β4 nAChRs; [6])	Ki (α3β4 nAChR; [7])	Ki (α4β2 nAChR; [8])	other results
OCCCCC#Cc1cncc(OC[C@@H]2CCN2)c1 [Sazetidine-A, reference compound]	1.9 µM	0.062 nM	31,000	11,000	1.6 µM	0.024 µM	40%	0.0075 µM	0.012 µM	> 10 µM	–	–	EC50 (rat α3β4 nAChRs; agonist activity, ND = no significant stimulated efflux detected): 24 µM; IC50 (rat α3β4 nAChRs; desensitization, 10 min pre-treatment, Table 3 (Example 4), read-out: IC50(10′) α3β4): > 10 µM; Emax (rat α3β4 nAChRs): 17%
CCCCC#Cc1cnc(C)c(OC[C@H]2CCN2)c1 [(R)-15, (R)-3-(azetidin-2-ylmethoxy)-5-(hex-1-ynyl)-2-methylpyridine]	–	–	270	220	120 µM	–	–	–	–	–	200 µM	740 nM	Ki (α7 nAChR; [7]): 160 µM
CCCCC#Cc1cnc(C)c(OC[C@H]2CCCN2)c1 [(R)-16, (R)-5-(hex-1-ynyl)-2-methyl-3-(pyrrolidin-2-ylmethoxy) pyridine]	22 µM	9900 nM	22	11	–	–	–	–	–	–	–	–	Ki (α7 nAChR; [7]): 110 µM
c1cnc2cc3c(cc2n1)[C@@H]1CNC[C@H]3C1 [Varenicline]	–	–	–	–	–	–	–	–	–	–	–	–	Emax (rat α3β4 nAChRs): 90%; gagging (retching), mean # of episodes (ferrets): 2.80 ± 1.63; time post-injection at which locomotor behavior was noticeably reduced (ferrets): ~1.05 min; emetic episodes (ferrets; 1 hr observation): no emetic episodes were observed; time at which nausea behaviors manifested (ferrets; average): ~2.20 min; animals with drug induced nausea (gagging) (ferrets; animals affected/tested): 4/5
CCCCC#Cc1cnc(C)c(OC[C@@H]2CCCN2)c1 [(S)-16, (S)-5-(hex-1-ynyl)-2-methyl-3-(pyrrolidin-2-ylmethoxy)pyridine]	94 µM	73 nM	–	–	81 µM	–	–	–	1.6 µM	6.4 µM	–	–	Emax α4β2 nAChRs (human α4β2 nAChRs; [3]): didn't show detectable agonist activity
Cc1ncc(C#CCCCCO)cc1OC[C@@H]1CCN1 [(S)-17, (S)-6-(5-(azetidin-2-ylmethoxy)-6-methylpyridin-3-yl)hex-5-yn-1-ol]	250 µM	–	70,000	40,000	170 µM	0.063 µM	< 20%	0.042 µM	0.051 µM	> 10 µM	–	4.3 nM	reduction in binding affinity for α4β2 nAChRs (α4β2 nAChR; relative to Sazetidine-A): 70 fold; IC50 (rat α3β4 nAChRs; read-out: IC50(10′) α3β4): 50 µM
CN1CCC[C@H]1c1cccnc1 [(—)-Nicotine, (−)-nicotine, reference compound]	–	–	–	–	–	–	–	–	–	–	–	–	Emax (human α4β2 nAChRs): 100%; Emax α3β4 nAChRs (rat α3β4 nAChRs): full agonist activities
CCCCC#Cc1cnc(C(F)(F)F)c(OC[C@@H]2CCN2)c1 [compound 32, (S)-3-(azetidin-2-ylmethoxy)-5-(hex-1-ynyl)-2-(trifluoromethyl)pyridine hydrochloride]	–	–	–	–	–	–	–	–	–	–	> 100 µM	–	Ki (α4β2 nAChR): > 100000 nM
Cc1ncc(C#CC2CC2)cc1OC[C@@H]1CCN1 [(S)-27, (S)-3-(azetidin-2-ylmethoxy)-5-(cyclopropylethynyl)-2-methylpyridine]	150 µM	–	16,000	16,000	150 µM	0.16 µM	< 20%	0.011 µM	0.11 µM	> 10 µM	150 µM	9.6 nM	IC50 (rat α3β4 nAChRs; read-out: IC50(10′) α3β4): 36 µM
